A melting point compilation (Tetko et al.; mined from patent text by program, amines drawn as free bases though some values may be those of a salt)

Structure (SMILES) | melting point [°C]
COP(=O)(OC)[C@H](C)NC(=O)[C@H](C)NC(=O)[C@H](C)NC(=O)OCc1ccccc1 | 149 to 151
CCOC(=O)c1ccc(-c2ccc(-c3ccccc3O)c(-c3ccc4c(c3)C(C)(C)CCC4(C)C)c2)cc1 | 161 to 163
Cc1cc(C(=O)O)cc(C)c1N=C1NCCN1 | 116 to 117
CCOC(=O)Cc1c[nH]c2cc(C(F)(F)F)nn2c1=O | 290 to 293
N#Cc1cc(-c2nc3cncnc3s2)ccc1Oc1ccccc1F | 195 to 196
CN1C(=O)C2C3CCC(C2C1=O)N1COc2ccccc2N=C31 (stereo not drawn) | 222 to 224
CC(=O)N1CCC(n2cnc3ccc(-c4nnc(C)o4)cc32)CC1 | 228 to 229
CCc1nc2c(O)cc(C(=O)N(C)C)cc2n1C | 193 to 199
COC(=O)c1ccc(Cc2cc3cc(Cl)ccc3n2S(=O)(=O)N2CCCCC2)cc1 | 133
Cc1ccc(-n2nc(C(C)(C)C)cc2NC(=O)Nc2ccc(-c3c(C(N)=O)[nH]c4ccccc34)cc2)cc1 | > 260
CCCC(=O)c1ccc2[nH]cc3c2c1CC(N(CCC)CCC)C3 (stereo not drawn) | 151 to 153
CCCn1nc(-c2ccncc2)nc1-c1ccncc1 | 88 to 89
CNC(=O)C(CC(O)CO)N(CCN(CCN(CCN(CC(=O)O)C(CC(O)CO)C(=O)NC)CC(=O)O)CC(=O)O)CC(=O)O (stereo not drawn) | 86 to 92
O=C(NCCO)c1csc(C(F)(F)F)n1 | 100 to 101
CCCC(=O)c1c[nH]c(=O)[nH]1 | 268 to 270
CN1CCN(C2=Nc3ccccc3Cn3cccc32)CC1 | 139 to 141
CC(C)(C)c1cc(-c2nc(C(Cl)(Cl)Cl)no2)cc(C(C)(C)C)c1O | 100 to 102
COCCn1cc(C#N)c(N)n1 | 105 to 107
O=C(N[C@@H](Cc1ccc(C(F)(F)F)cc1)[C@H](O)c1ccc(F)cc1)c1ccc(C(F)F)c2ccccc12 | 212 to 213
COc1cccc(C23CCN(C(=O)c4ccccc4)CC2CCC(=O)C3)c1 (stereo not drawn) | 78
C[C@]1(COc2ccc(N3CCC(Cc4cccc(OC(F)(F)F)c4)CC3)cc2)Cn2cc([N+](=O)[O-])nc2O1 | 187 to 190
CC1(C)CC(=C(c2ccc(O)cc2)c2ccc(C(N)=O)cc2)CC(C)(C)C1 | 209 to 210
Fc1cc2c(cc1F)CC(n1cc[nH]c1=S)CC2 (stereo not drawn) | 206 to 207
COCC1=C(C(=O)OC)C(c2ccc(Br)cc2)C(C(=O)OC)=C(COC)N1 | 162 to 163
NS(=O)(=O)c1cc(S(=O)(=O)N(N2CCCCC2)N2CCCCC2)c(Cl)cc1Cl | 170
C[C@H](CO)Nc1ccc([N+](=O)[O-])cc1F | 128 to 130

Structure (SMILES) | melting point [°C]
C=CS(=O)(=O)C(C)(C)S(=O)(=O)C=C | 121 to 122
CC(=O)C1Cc2cc(CCN3CCC(c4noc5cc(F)ccc45)CC3)sc2CN1 (stereo not drawn) | 170 to 172
COc1cc(OC)c(-c2cc3ccccc3s2)cc1/C=C/C(=O)c1ccc(C(=O)NC(C)=O)cc1 | 228 to 229
CCOC(=O)C(=CNc1nnc(N2CCOC(C)C2)s1)C(=O)OCC (stereo not drawn) | 89 to 91
CCCNC(=O)n1nc(Oc2c(Cl)cc(C(F)(F)F)cc2[N+](=O)[O-])cc1C | 111 to 113
CC(=NNC(=N)N)c1sc(-c2ccc(C(C)(C)C)cc2)nc1C | 252 to 253
Cn1c(-c2cnn(-c3c(Cl)cc(C(F)(F)F)cc3Cl)n2)nc(C#N)c1C#N | 154 to 156
CCn1nc(-c2nc(C#N)c(C#N)nc2-c2ccccc2)ccc1=O | 201 to 203
COc1ccc2c(c1)c(Cc1cc(=O)n(-c3cccc(C)c3)[nH]1)c(C)n2C(=O)c1ccc(Cl)cc1 | 120 to 122
Cc1c(F)cc(C(=O)OC(C)(C)C)cc1I | 77 to 80
O=C1CSCCN1c1ccc(C(F)(F)F)cc1 | 79 to 80
O=S(=O)(c1ccc(O)cc1)c1ncn(-c2ccccc2)c1-c1ccccc1 | 300
CNS(=O)(=O)c1ccc(Oc2ccc(N)cc2)cc1 | 121 to 122
COCc1nnc(-c2cccnc2)n1-c1c(Cl)c(C)cc2[nH]c(=O)c(=O)[nH]c12 | 229 to 231
Cn1cc(C2=C(c3ccncc3)C(=O)OC2=O)c2ccccc21 | 217 to 219
CCOC(=O)CCCOc1ccc(CC(C)(C)N)cc1 | 103 to 105
CCOC(=O)C1=C(C)NC(C)=C(C(=O)OCC)C1c1ccccc1/C=C/c1ccc(OC)cc1 | 179 to 181
FC(F)(F)c1cc(Cl)ccc1N=C(Cl)n1cncn1 | 165 to 166
COc1ccc(C2=N[C@H](c3ccccc3)[C@@H](OC(=O)Oc3ccc([N+](=O)[O-])cc3)CO2)cc1 (racemic) | 164
CC(C)(C)c1nc2cc(N3CCOCC3)c([N+](=O)[O-])cc2s1 | 119 to 121
COC(=O)Nc1c(C(=O)OC)[nH]c2c(C)ccc(C)c12 | 184 to 185
COc1cc2cc(C(=O)N3CC(CCl)c4c3cc(N)c3ncccc43)[nH]c2c(OC)c1OC (stereo not drawn) | 225 to 227
CC1CCC(N2c3ccccc3Oc3ccccc32)=N1 (stereo not drawn) | 135 to 137
CCn1cnc(Cl)c2nc(C3CC3)nc1-2 | 140 to 145
Cc1cccc2ncn(C3CCC(=O)NC3=O)c(=O)c12 (stereo not drawn) | 262 to 264

The remaining lines, values ahead:

melting point [°C] | Structure (SMILES)
205 to 206 | CN(O)C(=O)Nc1c(C(=O)c2cccc(Cl)c2)[nH]c2cc(Cl)ccc12
197 to 199 | O=C(O)/C=C/c1cnoc1-c1ccccc1
182 to 183 | c1ccc(NN2CCc3ccccc32)cc1
61 | N#CCOc1cccc2c1c1cccc3c1n2C(c1ccccc1)CO3 (stereo not drawn)
202 to 205 | CCOc1c(C(=O)c2cccs2)cnc2[nH]ncc12
84 to 85 | O=C(Cl)COc1ccc([N+](=O)[O-])cc1
106 to 108 | CCOc1cc2c(cc1OCC)C(C(C#N)SCCC(=O)O)=NCC2 (stereo not drawn)
175 to 176 | O=C(O)c1n[nH]c2ncccc12
187 to 188 | CCCc1cn2c(=O)c(C(=O)OCC)cnc2c2cc(OC)ccc12
155 | CCCO[C@@H](C)C(=O)Oc1ccc(-c2ccc(C(=O)O)cc2)cc1
148 to 151 | CC(=O)OCC(=O)NCc1cccc(-c2csc(N=C(N)NC(=O)COC(C)=O)n2)n1
208 to 209 | CCOC(=O)C1=C(C)NC(=S)NC1c1cccc([N+](=O)[O-])c1 (stereo not drawn)
115 to 118 | OCc1csc(Nc2ccccc2)n1
213 to 215 | COc1cc(OCc2c(C)noc2C)c(C=CC(=O)c2ccc(C(=O)O)cc2)cc1-c1cccs1
214 | O=C(O)Cc1nn(Cc2nc3cc(Br)ccc3s2)c(=O)c2ccccc12
226 to 228 | Oc1c(Br)cc(-c2c3ccccc3c(Br)c3oc4ccccc4c23)c(O)c1Br
162 to 163 | CC[C@@H]1c2onc(-c3ccc(Cl)cc3)c2CC[C@H]1C(=O)O (relative stereo)
170 | CCCCCCCNC(=O)Nc1ccccc1C(=O)NCCn1cnc(-c2ccccc2)c1-c1ccccc1
237 to 239 | CNC(=O)c1cc2c(nc(C)n2C)c2c1CCC(OC)(c1ccccc1)O2 (stereo not drawn)
102 to 104 | Nc1nccc(Oc2ccc3c(C(=O)Nc4cccc(C(F)(F)F)c4)cnn3c2)n1
110 to 112 | O=C(O)Cc1ccc(-n2cc(F)cn2)c(Cl)c1
185 to 187 | CCCC1(Cl)Cc2cc(OCC(=O)O)c(Cl)c(Cl)c2C1=O (stereo not drawn)
122 to 124 | Cc1nccn1N=Cc1ccccc1
128 to 132 | CC(=O)NC(Cc1ccccc1)C(=O)NC(C)C(=O)O (stereo not drawn)
149 to 150 | COc1ccccc1C(=O)c1noc(CC(N)=O)n1
243 to 246 | COc1ccc2nc3c([N+](=O)[O-])ccc(Cl)c3c(Cl)c2c1

melting point [°C] | Structure (SMILES)
70 to 71.5 | O=C(O)CCCCCCCCCCCCCCCCCCI
250 to 256 | CC(C)OC(=O)c1nc(-c2ccc(=O)[nH]c2)c(-c2ccccc2)nc1N
77 to 79 | CCCCCCCCCCCCCCOc1cc(OCCCOc2ccc(OCc3ccccc3)cc2)cc(C(=O)O)c1
210 to 211 | O=C(O)c1c(-c2ccc(F)c(Cl)c2)c2ccccc2n1Cc1cc2c(cc1Cl)OCO2
181 to 184 | CCCCOC(=O)CNC(=O)c1ccc2cc(C(=O)OC)[nH]c2c1
51 to 52 | Cc1cccc2c(=O)cc(C3CCCC3)oc12
126 to 128 | CCOC(=O)c1cnc2c(cnn2CC)c1Nc1ccccc1N
118 to 119 | Cn1cnnc1NCCCOc1cccc(CN2CCCCC2)c1
96 to 97 | O=C(O)Cc1ccc2c(c1)C(=O)c1ccccc1CS2
159 to 161 | COC(=O)c1cccc2nc(SCCN3CCN(CC(=O)Nc4c(C(C)C)cccc4C(C)C)CC3)oc12
75 | O=C(c1ccccc1)c1cc([N+](=O)[O-])ccc1NC1CCCCC1
133 to 135 | O=c1cc(CNCc2ccccc2)c2ccc(OCc3cccc(Cl)c3)cc2o1
86 to 87 | O=C(O)CCCCCOc1cccc2occc12
155 to 157 | COc1ccc(-n2nc(N3CCN(C(N)=O)CC3)c3ccccc32)cc1
46 to 47 | COC(=O)CC(CSc1nc2ccccc2s1)C(=O)OC (stereo not drawn)
78 to 80 | CC(=O)Nc1ccccc1OCCCO
74 | COc1ccccc1C(=O)c1cccc2c1ccn2C
82.5 to 84.5 | O=[N+]([O-])c1ccc(CCCNCCO)cc1
128 to 129 | CN1CCN(c2cccc3ccc(Nc4ncccc4[N+](=O)[O-])cc23)CC1
51 to 53 | CCOC(=O)C(c1ccccc1)n1cccc1 (stereo not drawn)
250 to 251 | Cc1ccc(Sc2c(SCc3ccccc3)cc(C(=O)O)cc2S(N)(=O)=O)cc1
219 to 220 | COc1cc(C(=O)O)ccc1OCc1nc(-c2ccccc2)oc1C
260 to 262 | CC(C)C(NC(=O)CN1C=Cc2c([nH]c3c(C(=O)O)cccc23)C1)C(=O)C(F)(F)F (stereo not drawn)
210 to 214 | O=C(O)c1cc2ccnc(Cl)c2[nH]1
105 to 120 | COc1ccc(C(=CC(=O)N2CCOCC2)c2ccc(O)cc2)cc1OC
110 to 112 | C=CCOc1ccc2cn[nH]c2c1
